Reference: ChEMBL document CHEMBL1139870, “Structure-guided optimization of small molecules inhibiting human immunodeficiency virus 1 Tat association with the human coactivator p300/CREB binding protein-associated factor” (J Med Chem, 2007)
Active and inactive are the calls of the source. No cut-off for these calls is given here.

Molecular target: Cyclin-dependent kinase inhibitor 1 (Homo sapiens) (UniProt P38936)
Experiment: Effect on p53-induced p21 transcription in response to DNA damage at 5 uM

Sequence of Cyclin-dependent kinase inhibitor 1 (Homo sapiens) (P38936 whole entry): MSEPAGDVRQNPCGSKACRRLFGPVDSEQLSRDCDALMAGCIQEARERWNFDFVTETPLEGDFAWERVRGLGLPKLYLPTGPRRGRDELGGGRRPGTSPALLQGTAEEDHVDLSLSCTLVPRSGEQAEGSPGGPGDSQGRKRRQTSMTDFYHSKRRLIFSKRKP

## Cc1ccc(NCCCN)c([N+](=O)[O-])c1
  Activity: inactive

## CC(Cl)c1ccc(NCCCN)c([N+](=O)[O-])c1 (configuration not stated)
  Activity: inactive
